Test results as given in patent US20240329063A1, “METHOD FOR EVALUATING RESIDUAL PLATELET THROMBOTIC POTENTIAL IN PATIENTS UNDERGOING ANTIPLATELET TREATMENT” (Centro Cardiologico Monzino S.P.A., priority 2021, published 2024).

Columns and labels:
[1] = system: TF; assay: ADP-induced TF expression on platelets, flow cytometry, in vitro antagonist inhibition curves; format: cell-based, human; settings: ADP-stimulated platelets, spread as % CV, FIG. 1D-F
Procedure: (§1) The data obtained in patients without clopidogrel (No clopido) (n=39) are shown for comparison purposes. Panels C, D and E show the ADP concentration-response curves (black squares) and AR-C69931MX antagonist inhibition curves (white triangles) relating to TF, aGPIIbIIIa and P-selectin respectively. The EC50 of the agonist was calculated with a four-parameter logistic model, while the pA2s of the antagonist were calculated as described in Materials and Methods. The results are presented as percentage expression of the protein compared with baseline (s/b). The experiments were conducted at least three times. **p<0.01, ***p<0.001.
(§2) For the analysis of intracellular expression of TF, the cells were fixed for 2 hours with 1% paraformaldehyde, permeabilised for 10 min with an 0.1% solution of Triton X-100 PBS, and labelled for 15 min at room temperature in the dark with saturating concentrations of anti-TF and CD61 antibodies (PerCP; Becton Dickinson). […] All the data were analysed with Kaluza analysis software v1.5 (Beckman Coulter) and reported as percentage of positive cells or MFI (mean fluorescence intensity) of platelets positive to the activation marker.
(§3) A p-value of 0.05 was considered statistically significant. […] All curves shown are generated by informatics methods.

[2] = system: P-selectin; assay: ADP-induced P-selectin expression on platelets, flow cytometry, in vitro antagonist inhibition curves; format: cell-based, human
Procedure: as §1, §2, §3

[3] = system: aGPIIbIIIa; assay: ADP-induced aGPIIbIIIa expression (PAC1 binding) on platelets, flow cytometry, in vitro antagonist inhibition curves; format: cell-based, human; settings: ADP-stimulated platelets, spread as % CV, FIG. 1D-F
Procedure: as §1, §2, §3

[4] = system: TF; settings: clopidogrel 75 mg/day, FIG. 1A
Procedure: (§4) The in vitro experiments were conducted on 10 healthy volunteers (n=5 males and n=5 females; average age 39±6) who had not taken antiplatelet medicaments in the 10 days before the blood sample was taken. The effect of clopidogrel on TF expression was evaluated on 193 patients suffering from coronary artery disease (CAD) with myocardial infarction with non-ST elevation. […] The clinical characteristics of the patients enrolled are set out in Table 1.
(§5) The exclusion criteria were: age >80 years, valvular heart disease, atrial fibrillation, thyrotoxicosis, history of haemorrhagic diathesis, platelet disorder or thrombocytopenia, anticoagulant or thrombolytic treatment. A subject with severe congenital P2Y12 deficiency (person) was also studied.
(§6) Whole blood (WB) samples were taken with a 19 gauge needle without venous stasis in tubes containing sodium citrate (0.129 M, 1/10 volume/volume) (Vacutainer, Becton Dickinson), discarding the first 4 ml. The blood samples were then processed within 15 minutes of sample-drawing. The WB was centrifuged (room temperature, without centrifuge brake) at 100 g for 10 minutes to isolate the platelets. The platelet-rich plasma (PRP) was transferred to a new test tube and analysed with the Sysmex XE-2100 Automated Hematology Analyzer to determine the platelet count, mean platelet volume (MPV), platelet distribution […] (PDW), platelet recovery (defined as the percentage of the platelet count in the PRP to 100% of the number of platelets in the WB), and leukocyte contamination. Only the platelet preparations free of leukocyte contamination and with platelet recovery >70% were used for the subsequent thrombin generation analysis.
(§7) Surface expression of platelet activation markers was analysed by flow cytometry as previously described (Brambilla M, et al., Arterioscler Thromb Vasc Biol. 2008;28 (5): 947-953). Briefly, the samples were incubated/labelled with saturating concentrations of mouse monoclonal antibodies recognizing human tissue factor (HTF1; Thermo Fisher), P-selectin (APC; Becton Dickinson), PAC1 (FITC; Becton Dickinson), CD36 (PE; Becton Dickinson) and CD154 (FITC; Becton Dickinson). For the analysis of intracellular expression of TF, the cells were fixed for 2 hours with 1% paraformaldehyde, permeabilised for 10 min with an 0.1% solution of Triton X-100 PBS, and labelled for 15 min at room temperature in the dark with saturating concentrations of anti-TF and CD61 antibodies (PerCP; Becton Dickinson).

[5] = system: P-selectin; settings: clopidogrel 75 mg/day; 10 μM ADP; all CAD patients, to the same extent regardless of the degree of VASP phosphorylation; FIG. 1C
Procedure: as §4, §5, §6, §7

[6] = system: aGPIIbIIIa; settings: clopidogrel 75 mg/day; 10 μM ADP; FIG. 1B
Procedure: as §4, §5, §6, §7

Row | SMILES | pA2 for inhibition of TF expression [1] | pA2 for inhibition of P-selectin expression ([2]; ADP-stimulated platelets, spread as % CV, FIG. 1D-F) | power (pA2) to inhibit P-selectin expression relative to that required to inhibit TF ([2]; P-selectin versus TF) [times] | power (pA2) to inhibit P-selectin expression relative to that required to inhibit aGPIIbIIIa ([2]; P-selectin versus aGPIIbIIIa) [times] | pA2 for inhibition of aGPIIbIIIa expression [3] | inhibition of TF exposed to stimulation with 10 μM ADP, poor responders versus good responders ([4]; patients with PRI >60% compared with PRI <60%) | inhibition of TF exposed to stimulation with 10 μM ADP, poor responders versus untreated subjects ([4]; patients with PRI >60% compared with subjects not treated with clopidogrel) | P-selectin expression [5] | expression of activated glycoprotein IIbIIIa measured by the PAC1 bond [6]
1 | CSCCNc1nc(SCCC(F)(F)F)nc2c1ncn2[C@@H]1O[C@H](COP(=O)(O)OP(=O)(O)C(Cl)(Cl)P(=O)(O)O)[C@@H](O)[C@H]1O [AR-C69931MX] | 9.33±2.1 | 11.5±3.1 | 150 | 6 | 10.7±0.29 |  |  |  | 
2 | COC(=O)[C@H](c1ccccc1Cl)N1CCc2sccc2C1 [clopidogrel] |  |  |  |  |  | significantly less than that measured in the good responders | not statistically different from that measured in the subjects not treated with clopidogrel | significantly inhibited | highest in the poor responders
